Broadly, the IC50 is the point on the concentration scale where inhibition reaches its midpoint.

These results are taken from patent US20250115595A1, “INHIBITORS OF HYPOXIA-INDUCIBLE FACTORS” (The Johns Hopkins University, priority 2021, published 2025).

Structures are written as SMILES.

In experiment [1] the test system is HIF transcriptional activity. Kind of experiment: Luciferase reporter assay (FLuc/RLuc) in hypoxic Hep3B-c1 cells. As to conditions: Homo sapiens, FLuc/RLuc ratio, 1% O2, 24 hours. It is filed as cell-based. Here is the method: The NCI CellMiner database contains expression data on 25,698 mRNAs in 60 human cancer cell lines that were exposed to 21,770 chemical compounds (Reinhold W C, et. al., Cancer Res. 2012; 72(14):3499-3511). The CellMiner database was interrogated for compounds that induced changes in gene expression highly correlated with those induced by acriflavine, but would be structurally unrelated to acriflavine. Compounds that satisfied these criteria were analyzed in Hep3B-c1 cells (Zhang H. et. al., Proc Natl Acad Sci USA. 2008; 105(50):19579-19586), which are stably transfected with: HIF dependent reporter plasmid p2.1, in which firefly luciferase (FLuc) coding sequences are located downstream from a hypoxia response element (HRE) and a basal SV40 promoter; and control reporter pSVR, in which Renilla luciferase (RLuc) coding sequences are downstream of the basal SV40 promoter only (FIG. 1A).
Hep3B-c1 cells (Zhang 2008), which are stably co-transfected with reporter plasmids p2.1, a hypoxia-inducible firefly luciferase reporter gene containing a hypoxia response element (HRE), and pSVR, a constitutively expressed Renilla luciferase reporter gene, were seeded on 24-well plates. Cells were treated with compounds the following day and exposed to 20% or 1% O2 for 24 hours. For transient transfection, cells were seeded, transfected with the listed plasmids and compounds, and exposed to 20% or 1% O2 for 24 hours. FLuc/RLuc ratios were determined using the Dual Luciferase Reporter Assay System (Promega) and the VICTOR Nivo plate reader (PerkinElmer).

The next experiment relates to HIF target genes. As to the kind of experiment: RT-qPCR of HIF target gene expression in Hep3B cells. It is filed as cell-based, human. The protocol: Based on hit compound 11-88, a number of analogs were prepared in which either halogen substitutions to the indole groups were altered or the central thiazole was replaced by imidazole, isoxazole, oxadiazole, oxazole, pyrazinone, pyridazine, pyrazine, pyrazole, pyridine, thiadiazole, triazine, or triazole. […] The bis-bromoindole thiazole 32-134D and the bis-indole thiadiazole 33-063 (FIGS. 1B and 1C) were further characterized with respect to endogenous HIF target gene expression in Hep3B cells. […] For comparison, we tested the effect of PT2385, which inhibited EPO, NDRG1, ANGPTL4, and VEGFA expression but had no effect on CA9, which is consistent with its HIF-2-selective mechanism of action (Wallace E M et al., Cancer Res. 2016; 76(18):5491-5500). None of the compounds had any effect on RPL13A expression, which is neither hypoxia-induced nor HIF-regulated (FIG. 3).
(§1) Human Hep3B and mouse Hepa1-6 cells were purchased from ATCC and grown in high-glucose (4.5 mg/ml) Dulbecco's modified Eagle's medium supplemented with 10% (vol/vol) fetal bovine serum and […] at 37° C. in a 5% CO2/95% air incubator (20% O2). Human cell line identity was authenticated by analysis of short tandem repeats, and all cell lines were maintained mycoplasma free, using PCR-based assays conducted at the Johns Hopkins University Genetic Resources Core Facility. Cells were subjected to hypoxia in a controlled atmosphere chamber (PLAS Labs) with ambient gas mixture containing 1% O2 and 5% CO2.
RNA was extracted using TRIzol Reagent (ThermoFisher). Quantitative Real-time PCR was conducted using SYBR Green PCR Master Mix (BioRad) and reactions were run using the BioRad thermal cycler (BioRad). The mRNA expression of target genes was normalized to the expression of 18S rRNA and the fold change (FC) was calculated based on the threshold cycle (Ct) as
FC=2^−Δ(ΔCt) where ΔCt=Cttarget gene−Ct18S rRNA and Δ(ΔCt)=ΔCttreatment−ΔCtcontrol.
In general terms: In qPCR the cycle at which signal appears reflects the starting amount.

The test system of the next experiment is Hepa1-6 mouse HCC cells. As to the kind of experiment: RT-qPCR of hypoxia-induced mRNAs in Hepa1-6 cells. It is filed as cell-based. As to conditions: hypoxic Hepa1-6 cells. The protocol: Effects of 32-134D on Hepa1-6 mouse HCC cells and tumors. […] Thus, 32-134D inhibits the ability of hypoxic HCC cells to increase O2 delivery by stimulating angiogenesis (Angpt14, Pgf, Vegfa) or […] anaerobic metabolism by increasing glycolytic flux (Glut1, Pgk1, Ldha).
as §1
RNA was extracted using TRIzol Reagent (ThermoFisher). Quantitative Real-time PCR was conducted using SYBR Green PCR Master Mix (BioRad) and reactions were run using the BioRad thermal cycler (BioRad). The mRNA expression of target genes was normalized to the expression of 18S rRNA and the fold change (FC) was calculated based on the threshold cycle (Ct) as […]

Another experiment relates to advanced HCC. As to conditions: advanced HCC patients; cited from earlier work.

Take `Brc1ccc2c(-c3nnc(-c4c[nH]c5cc(Br)ccc45)o3)c[nH]c2c1` [Compound 33-103C]: the IC50 in experiment [1] stood at 2.8 µM.

Consider `Brc1ccc2[nH]cc(-c3nnc(-c4c[nH]c5ccc(Br)cc45)o3)c2c1` [Compound 33-103B], for which the IC50 in experiment [1] is 2.87 µM.

Turning to `Clc1ncc(-c2c[nH]c3ccccc23)nc1-c1c[nH]c2ccccc12` [Compound 34-146], the half-maximal inhibitory concentration (IC50) in experiment [1] turned out to be 2.04 µM.

Regarding `c1ccc2c(-c3cncc(-c4c[nH]c5ccccc45)n3)c[nH]c2c1` [Compound 34-110], the IC50 in experiment [1] came out at 1.27 µM.

For `c1ccc2c(-c3nsc(-c4c[nH]c5ccccc45)n3)c[nH]c2c1` [Compound 33-063, 3,5-di(1H-indol-3-yl)-1,2,4-thiadiazole], the IC50 in experiment [1] amounted to 2.2 µM. Moreover, in the experiment with HIF target genes, the “hypoxia-induced expression of HIF target genes CA9, ANGPTL4, VEGFA, NDRG1 and EPO” value is “inhibited”. Further, in the experiment on Hepa1-6 mouse HCC cells, the “hypoxia-induced expression of mRNA encoding Angpt14, Pgf, Vegfa and Pgk1” value was “significant dose-dependent inhibition”.

On to `Brc1cccc2c(-c3csc(-c4c[nH]c5c(Br)cccc45)n3)c[nH]c12` [Compound 13-01], for which the IC50 in experiment [1] is 2.07 µM.

In the case of `Brc1ccc2c(-c3csc(-c4c[nH]c5cc(Br)ccc45)n3)c[nH]c2c1` [Compound 32-134C], in experiment [1], the IC50 stood at 2.3 µM.

On to `Brc1ccc2[nH]cc(-c3csc(-c4c[nH]c5ccccc45)n3)c2c1` [Compound 11-147B], for which, in experiment [1], the IC50 is 2.92 µM.

As for `Clc1ccc2c(-c3nc(-c4c[nH]c5cc(Br)ccc45)cs3)c[nH]c2c1` [Compound 12-147B], in experiment [1], the concentration for half-maximal inhibition (IC50) was found to be 3.08 µM.

Consider `O=c1[nH]c2ccc(-c3csc(-c4c[nH]c5ccccc45)n3)cc2o1` [Compound 12-93A], for which, in experiment [1], the IC50 amounted to 2.4 µM.

Consider `Brc1ccc2c(-c3nc(-c4cnc5ncccn45)cs3)c[nH]c2c1` [Compound 12-70C], for which, in experiment [1], the IC50 stood at 2.31 µM.

In the case of `c1ccc2c(-c3cc(-c4c[nH]c5ccccc45)[nH]n3)c[nH]c2c1` [Compound 35-092], in experiment [1], the IC50 came to 2.07 µM.

Regarding `c1ccc2c(-c3nc(-c4cnc5ncccn45)cs3)c[nH]c2c1` [Compound 12-93F], in experiment [1], the IC50 worked out at 2.48 µM.

For `CS(=O)(=O)c1ccc(Oc2cc(F)cc(C#N)c2)c2c1[C@H](O)C(F)(F)C2` [PT2385, reference compound], in the experiment on HIF target genes, the CA9 expression result was “no effect”; the “EPO, NDRG1, ANGPTL4 and VEGFA expression” value is reported as “inhibited”. For the same compound, the “expression of Pgk1 mRNA” value with Hepa1-6 mouse HCC cells is given as “no effect”. For the same compound, the “Angpt14, Pgf, and Vegfa mRNA expression” value in the experiment on Hepa1-6 mouse HCC cells (compared with 33-063 and 32-134D) is reported as “less potent inhibitor”.

For the compound `Brc1ccc2c(-c3nc(-c4c[nH]c5ccc(Br)cc45)cs3)c[nH]c2c1` [Compound 11-88], the IC50 in experiment [1] came to 2.9 µM.

In the case of `CNC(=O)c1cc(Oc2ccc(NC(=O)Nc3ccc(Cl)c(C(F)(F)F)c3)cc2)ccn1` [sorafenib], the survival benefit with advanced HCC was 2-3 months.

In the case of `O=c1[nH]cc(-c2c[nH]c3ccccc23)nc1-c1c[nH]c2ccccc12` [Compound 33-123], the IC50 in experiment [1] amounted to 3.24 µM.

Turning to `Brc1ccc2c(-c3nc(-c4c[nH]c5c(Br)cccc45)cs3)c[nH]c2c1` [Compound 13-03], the IC50 in experiment [1] was 2.69 µM.

For the compound `c1ccc2c(-c3cc(-c4c[nH]c5ccccc45)on3)c[nH]c2c1` [Compound 35-140], in experiment [1], the IC50 is 1.94 µM.

Consider `Brc1ccc2c(-c3csc(-c4c[nH]c5ccccc45)n3)c[nH]c2c1` [Compound 12-58], for which the IC50 in experiment [1] amounted to 3.09 µM.

`c1ccc2c(-c3nnc(-c4c[nH]c5ccccc45)o3)c[nH]c2c1` [Compound 33-087]: the IC50 in experiment [1] was 2.51 µM.

Take `Brc1ccc2[nH]cc(-c3nnc(-c4c[nH]c5ccccc45)o3)c2c1` [Compound 33-093B]: the IC50 in experiment [1] came to 2.7 µM.

With `c1cc(-c2c[nH]c3ccccc23)nc(-c2c[nH]c3ccccc23)c1` [Compound 34-090], the IC50 in experiment [1] came out at 1.83 µM.

With `Fc1ccc2c(-c3nc(-c4c[nH]c5cc(Br)ccc45)cs3)c[nH]c2c1` [Compound 12-147A], the 50% inhibitory concentration (IC50) in experiment [1] stood at 2.52 µM.

On to `c1ccc2c(-c3ccnc(-c4c[nH]c5ccccc45)n3)c[nH]c2c1` [Compound 35-020], for which the IC50 in experiment [1] worked out at 2.37 µM.

In the case of `Fc1cccc2c(-c3nc(-c4c[nH]c5cc(Br)ccc45)cs3)c[nH]c12` [Compound 12-143], in experiment [1], the IC50 stood at 2.6 µM.

On to `c1ccc2c(-c3csc(-c4c[nH]c5ccccc45)n3)c[nH]c2c1` [Compound 33-057A], for which, in experiment [1], the IC50 came to 2.86 µM.
